# Experimental data published in patent US20140017790A1, “CONTROL AGENT FOR CONTROLLING UNDIFFERENTIATED STATE AND USE THEREOF” (RIKEN, priority 2011, published 2014).
# Tests used:
# Type in all cases: cell-based
# human iPS cells [1] = experiment: phase-contrast morphology of human iPS cells with JAK or PI3K inhibitor; details: 6 days
# Method: As a JAK inhibitor, a JAK inhibitor I (Merck) was used. As PI3K inhibitor, the same LY294002 as used in Example 4 was used. Human iPS cells were cultured for 6 days under feeder conditions in the same manner as in the above item (1), except that not only the CCL2 but also the JAK inhibitor or the PI3K inhibitor further was added to the medium. In the medium, the concentration of the Jak inhibitor was set to 10 ng/ml, and the concentration of the PI3K inhibitor was set to 5 ng/ml.
# Furthermore, as a control, the cells were cultured in the same manner as in the above using the following media, respectively: a medium containing bFGF instead of the CCL2 and containing DMSO (5 ng/ml) instead of the inhibitor; and a medium containing bFGF (5 ng/ml) instead of the CCL2 and containing the inhibitor.
# The phase-contrast micrographs show the results obtained under the conditions of, from the above: the inhibitor not added (DMSO added); the JAK inhibitor added; and the PI3K inhibitor added.
# human iPS cells [2] = experiment: culture of human iPS cells in feeder free media, EB plating, cell adhesion; details: LIF not added, CCL2 500 ng/ml alone or bFGF 5 ng/ml alone
# Source text: As undifferentiated cells, the same human iPS cells as used in Example 7 were used. As CCL2, the mouse recombinant CCL2 used in the item (1) of Example 2 was used. As feeder free media, the following three kinds of media were provided by adding or not adding the CCL2, LIF and bFGF to the medium for human stem cells used in Example 8. Specifically, the media used were as follows: the medium with CCL2 not added (−)/LIF not added (−)/bFGF added (+); the medium with CCL2 added (+)/LIF not added (−)/bFGF not added (−); and the medium with CCL2 added (+)/LIF added (+)/bFGF not added (−). In each medium, the concentration of the LIF was set to 50 units/ml, the concentration of the CCL2 was set to 500 ng/ml, and the concentration of the bFGF was set to 5 ng/ml. Then, the human iPS cells were cultured for 6 days using each medium, and EBs were produced. Thereafter, the thus-produced EBs were seeded in gelatin coated dishes so that each gelatin coated dish contained one EB, and cultured for 5 days in a medium (DMEM) containing 20% FBS.
# The photographs in FIG. 20 show the cell morphologies of the EBs on the 5th day from the plating.
# human iPS cells [3] = experiment: differentiation of EBs to myocardial cells, morphology and Tropomyosin immunostaining; details: 10th day from the plating; CCL2(+)/LIF(+) or CCL2(-)/bFGF(+) 5 ng/ml
# Source text: It has been reported that, in general, according to the spontaneous differentiation-inducing method used in the above item (1), differentiation into myocardial cells is more liable to occur. Thus, regarding the cells on the 10th day from the plating in the above item (1), differentiation into myocardial cells was examined.
# The morphology of the cells was examined with a microscope. Furthermore, they were immunostained with a Tropomyosin, which is a marker for myocardial cells. Also, culture of the cells, observation of the morphology, and staining were carried out in the same manner as in the above using a medium to which bFGF (5 ng/ml) has been added instead of the CCL2 and LIF.
# The photographs in FIG. 19 show the morphologies of the cells on the 10th day from the plating of EB. […] Furthermore, in FIGS. 19A and 19B, the photographs on the left show the cell morphologies, and the photographs on the right show the stained cells. In the black and white photographs of FIG. 19, the stained portions are seen as light gray.
# human iPS cells [4] = experiment: EB formation and spontaneous differentiation, cell morphology; details: third day from the plating; iPS cells precultured 6 days with the substance
# Method: Human iPS cells were cultured for 6 days under feeder conditions in the same manner as in Example 7. Thereafter, embryonic bodies (EBs) were produced. EB formation is known as a spontaneous differentiation-inducing method for inducing the differentiation of iPS cells. Specifically, first, a ROCK inhibitor (Y-27632, WAKO) was added to the culture solution being used for the culture of the human iPS cells so that the concentration thereof was […], and the human iPS cells were cultured for 1 hour under the conditions of 37° C. and 5% CO2. Then, the feeder cells used for the culture were dissociated with a human ES/iPS cell dissociation solution (CTK solution), and the human iPS cells were collected. Then, 1×10^6 of the human iPS cells were seeded in an ultra-low adhesion culture vessel, and cultured for 6 days in an EB preparation medium (DMEM/F12, Knockout SR, L-glutamine, NEAA (non-essential amino acid (GIBCO)), 2-ME, Pen/Strep). The medium was replaced every two days.
# Next, spontaneous differentiation was induced. Specifically, the produced EBs were seeded in gelatin coated dishes so that each gelatin coated dish contained one EB. Each EB was cultured for 14 days in a medium (DMEM) containing 20% FBS, and then observed with a microscope. The medium was replaced every two days. The photographs in FIG. 18 show the cell morphology on the third day from the plating.
# human iPS cells [5] = experiment: quantitative RT-PCR of undifferentiated marker genes in human iPS cells under feeder conditions; details: CCL2 500 ng/ml, 6 days, relative to bFGF 5 ng/ml
# Method: (§1) A PrimeScript RT-PCR Kit (trade name, TAKARA BIO INC.), an ABI 7500 Fast real time PCR system (trade name, Applied BioSystems), and a SYBR (registered trademark) Premix Ex Taq (trade name, TAKARA BIO INC.) were used in accordance with their protocols. PCR was carried out by conducting 40 cycles of treatment with a treatment at 94° C. for 5 second and at 62.5° C. for 20 seconds as 1 cycle. The expression level of each gene was calculated by normalizing the relative amount of mRNA in the gene to Gapdh mRNA according to the 2^−ΔΔ^CT method (Thomse R, Solvsten C A, Linnet T E, et al., Analysis of qPCR data by converting exponentially related Ct values into linearly related XO values. J Bioinform Comput Biol 2010: 8: 885-900.).
# The human iPS cells were used as undifferentiated cells, and human recombinant CCL2 (137-13011, WAKO, SEQ ID NO: 1) was used as the CCL2. The medium used was a medium for human stem cells (trade name “Primate ES medium”, ReproCELL Incorporated). To this medium, LIF was not added, and the CCL2 was added. The concentration of the CCL2 in the medium was set to 500 ng/ml. Under the above-described feeder conditions, the human iPS cells were cultured on the feeder cells SNL76/7 that produce LIF in the above-described medium. Then, 6 days after the start of the culture, the feeder cells were removed, and total RNAs were collected from the cultured human iPS cells. The undifferentiated marker genes were then subjected to the quantitative RT-PCR.
# Also, as a negative control, the human iPS cells were cultured under the feeder conditions and the undifferentiated marker genes were subjected to quantitative RT-PCR in the same manner as in the above, except that bFGF (derived from human, WAKO) was added instead of the CCL2 so that the concentration thereof was 5 ng/ml. Thereafter, assuming that the expression level in the comparative example was 1, the relative value with respect to this value was calculated as the fold change in expression level.
# mouse iPS cells = experiment: siRNA knockdown and quantitative RT-PCR in mouse iPS cells
# Method: as §1, with “885-900.). […]” for “885-900.).”
# The Stealth siRNA was added so that the final concentration thereof per well was […]. Then, 24 hours after the transfection, total RNAs were extracted, and the expression levels of the undifferentiated marker genes and the Ccl2 gene in the mouse iPS cells were determined by the quantitative RT-PCR.
# Also, as a negative control, the mouse iPS cells were subjected to transfection in the same manner as in the above, except that Stealth siRNA (trade name: Stealth RNAi (registered trademark) Negative Control Medium GC, Duplex-catalog number 12935-300, Invitrogen) was used, and the expressions of the undifferentiated marker genes were measured (n=3). […]
molecule,measurement,setting,value
"CC(C)(C)c1nc2c3cc[nH]c(=O)c3c3cc(F)ccc3c2[nH]1 [Jak inhibitor, reference compound]","undifferentiation potency, cell morphology","human iPS cells [1]; Jak inhibitor 10 ng/ml, both bFGF(+)/CCL2(-) and bFGF(-)/CCL2(+)",all the cells had been differentiated and many dead cells were observed
"bFGF: bFGF (derived from human, WAKO), added instead of the CCL2 as negative control",cell adhesion,human iPS cells [2],not observed
same,"cell morphology of EBs, differentiation into myocardial cells",human iPS cells [3],most of them were epithelial cell-like cells
same,staining with Tropomyosin (marker for myocardial cells),human iPS cells [3],not stained
same,morphology of EB after spontaneous differentiation-inducing culture,human iPS cells [4],epithelial cell-like morphology
same,"undifferentiation potency, cell morphology","human iPS cells [1]; inhibitor not added (DMSO added), bFGF(+)/CCL2(-) or bFGF(-)/CCL2(+)","most of the cells maintained the undifferentiation potency, but some of the cells were differentiated"
"human recombinant CCL2: human recombinant CCL2 (137-13011, WAKO, SEQ ID NO: 1)","expression of the KLF4 gene, fold change",human iPS cells [5],about two-fold
same,"expression of the Nanog gene, fold change",human iPS cells [5],about two-fold
same,"expression of the REX1 gene, fold change",human iPS cells [5],about two-fold
same,"expression of the STELLA gene, fold change",human iPS cells [5],about two-fold
"siRNA against the Ccl2 gene: Stealth siRNA (Invitrogen), sequence SEQ ID NO: 7 CAUUCACCAGCAAGAUGAUCCCAAU (commercial Stealth siRNA, chemistry not given here)","expressions of the undifferentiated marker genes (Klf4, Tbx3) after knockdown of the Ccl2 gene","mouse iPS cells; 24 hours after transfection, relative to negative control siRNA",decreased markedly
"siRNA against the Klf4 gene: Stealth siRNA (Invitrogen), sequence SEQ ID NO: 8 CAAGUUUGUGCUGAAGGCGUCUCUG (commercial Stealth siRNA, chemistry not given here)",expression of the Tbx3 gene after knockdown of the Klf4 gene,"mouse iPS cells; 24 hours, relative to negative control",decreased markedly
